Measured values as given in ChEMBL document CHEMBL5055662, “Characterization of an aromatic trifluoromethyl ketone as a new warhead for covalently reversible kinase inhibitor design” (Bioorg Med Chem, 2021).
pIC50: −log10 of the molar value.

Key:
[1] = biological target: Fibroblast growth factor receptor 1 (Homo sapiens, UniProt P11362); assay: Inhibition of FGFR1 (unknown origin) using Tyr04 peptide as substrate incubated for 1 hr in presence of ATP by FRET based Z'-LYTE assay
[2] = biological target: Fibroblast growth factor receptor 2 (Homo sapiens, UniProt P21802); assay: Inhibition of FGFR2 (unknown origin) using Tyr04 peptide as substrate incubated for 1 hr in presence of ATP by FRET based Z'-LYTE assay
Chain of Fibroblast growth factor receptor 2 (P21802 whole entry): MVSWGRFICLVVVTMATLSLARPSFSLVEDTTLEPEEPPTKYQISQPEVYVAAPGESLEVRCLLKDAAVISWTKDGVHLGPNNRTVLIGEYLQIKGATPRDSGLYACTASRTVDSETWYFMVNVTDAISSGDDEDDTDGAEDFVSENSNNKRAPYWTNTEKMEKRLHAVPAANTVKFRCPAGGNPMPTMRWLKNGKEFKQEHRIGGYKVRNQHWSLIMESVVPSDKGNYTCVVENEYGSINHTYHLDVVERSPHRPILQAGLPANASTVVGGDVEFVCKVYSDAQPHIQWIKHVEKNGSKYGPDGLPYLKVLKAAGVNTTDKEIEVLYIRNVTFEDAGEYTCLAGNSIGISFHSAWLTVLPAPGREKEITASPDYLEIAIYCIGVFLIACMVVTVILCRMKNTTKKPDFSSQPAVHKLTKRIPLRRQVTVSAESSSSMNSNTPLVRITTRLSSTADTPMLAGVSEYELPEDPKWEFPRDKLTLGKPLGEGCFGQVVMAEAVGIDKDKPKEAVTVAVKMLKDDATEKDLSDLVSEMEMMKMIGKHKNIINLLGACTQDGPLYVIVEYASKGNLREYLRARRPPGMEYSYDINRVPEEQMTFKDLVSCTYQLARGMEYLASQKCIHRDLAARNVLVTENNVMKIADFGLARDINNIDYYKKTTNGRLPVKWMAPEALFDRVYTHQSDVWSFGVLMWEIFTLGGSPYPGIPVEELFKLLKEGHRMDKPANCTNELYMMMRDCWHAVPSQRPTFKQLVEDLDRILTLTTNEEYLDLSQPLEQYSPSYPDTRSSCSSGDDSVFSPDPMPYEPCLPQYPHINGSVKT

[3] = biological target: Fibroblast growth factor receptor 3 (Homo sapiens, UniProt P22607); assay: Inhibition of FGFR3 (unknown origin) using Tyr04 peptide as substrate incubated for 1 hr in presence of ATP by FRET based Z'-LYTE assay
Chain of Fibroblast growth factor receptor 3 (P22607 whole entry): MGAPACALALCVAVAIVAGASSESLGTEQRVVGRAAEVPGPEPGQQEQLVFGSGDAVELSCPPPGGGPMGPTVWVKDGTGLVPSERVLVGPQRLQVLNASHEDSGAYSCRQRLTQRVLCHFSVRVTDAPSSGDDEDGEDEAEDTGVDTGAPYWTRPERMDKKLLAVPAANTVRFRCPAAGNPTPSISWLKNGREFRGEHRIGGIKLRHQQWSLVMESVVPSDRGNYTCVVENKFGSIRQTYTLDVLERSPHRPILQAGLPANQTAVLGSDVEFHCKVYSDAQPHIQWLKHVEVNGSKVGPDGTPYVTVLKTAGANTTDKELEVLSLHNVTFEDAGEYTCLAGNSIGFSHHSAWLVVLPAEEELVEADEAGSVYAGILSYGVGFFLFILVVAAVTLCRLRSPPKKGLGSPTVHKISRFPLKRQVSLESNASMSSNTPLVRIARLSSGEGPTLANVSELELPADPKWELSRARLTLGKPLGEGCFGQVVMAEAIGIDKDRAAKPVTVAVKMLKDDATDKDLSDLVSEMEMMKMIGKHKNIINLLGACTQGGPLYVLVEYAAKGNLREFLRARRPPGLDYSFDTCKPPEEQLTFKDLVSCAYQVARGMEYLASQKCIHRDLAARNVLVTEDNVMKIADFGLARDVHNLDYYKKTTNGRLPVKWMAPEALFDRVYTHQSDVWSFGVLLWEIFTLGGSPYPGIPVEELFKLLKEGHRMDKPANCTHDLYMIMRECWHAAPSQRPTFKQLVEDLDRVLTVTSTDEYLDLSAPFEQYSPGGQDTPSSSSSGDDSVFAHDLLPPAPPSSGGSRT

[4] = biological target: Fibroblast growth factor receptor 4 (Homo sapiens) (UniProt P22455); assay: Reversible covalent binding affinity to recombinant His-tagged human FGFR4 expressed in baculovirus expression system assessed as recovery of kinase activity preincubated for 120 mins followed by dialysis of protein for 3 days by MALDI-TOF MS analysis relative to control; settings: time 4440.0 min
Chain of Fibroblast growth factor receptor 4 (Homo sapiens) (P22455 22-802 limits assumed): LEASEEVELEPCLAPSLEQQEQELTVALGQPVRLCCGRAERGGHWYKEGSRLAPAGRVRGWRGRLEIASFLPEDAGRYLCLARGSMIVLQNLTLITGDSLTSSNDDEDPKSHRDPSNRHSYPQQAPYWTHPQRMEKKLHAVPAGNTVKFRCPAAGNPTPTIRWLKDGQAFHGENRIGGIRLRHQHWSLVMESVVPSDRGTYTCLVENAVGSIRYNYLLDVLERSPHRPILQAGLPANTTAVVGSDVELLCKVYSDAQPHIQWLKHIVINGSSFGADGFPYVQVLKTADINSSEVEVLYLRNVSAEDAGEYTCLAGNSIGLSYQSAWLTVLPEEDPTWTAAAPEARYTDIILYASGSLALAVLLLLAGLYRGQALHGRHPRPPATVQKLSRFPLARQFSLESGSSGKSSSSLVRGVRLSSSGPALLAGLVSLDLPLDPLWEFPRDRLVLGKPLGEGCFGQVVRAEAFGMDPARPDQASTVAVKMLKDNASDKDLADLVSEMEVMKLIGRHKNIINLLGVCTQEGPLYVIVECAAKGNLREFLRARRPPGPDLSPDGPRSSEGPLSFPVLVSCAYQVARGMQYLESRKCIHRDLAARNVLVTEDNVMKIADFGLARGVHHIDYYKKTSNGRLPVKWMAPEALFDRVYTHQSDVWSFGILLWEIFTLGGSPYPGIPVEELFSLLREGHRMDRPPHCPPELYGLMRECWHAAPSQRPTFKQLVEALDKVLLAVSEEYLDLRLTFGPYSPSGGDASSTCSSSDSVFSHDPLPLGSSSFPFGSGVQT

[5] = biological target: T1, Tyrosine-protein kinase JAK3 (Homo sapiens, UniProt P52333); assay: Inhibition of JAK3 (unknown origin) incubated for 1 hr in presence of ATP and substrate by FRET based Z'-LYTE assay
T1 sequence (P52333 whole entry): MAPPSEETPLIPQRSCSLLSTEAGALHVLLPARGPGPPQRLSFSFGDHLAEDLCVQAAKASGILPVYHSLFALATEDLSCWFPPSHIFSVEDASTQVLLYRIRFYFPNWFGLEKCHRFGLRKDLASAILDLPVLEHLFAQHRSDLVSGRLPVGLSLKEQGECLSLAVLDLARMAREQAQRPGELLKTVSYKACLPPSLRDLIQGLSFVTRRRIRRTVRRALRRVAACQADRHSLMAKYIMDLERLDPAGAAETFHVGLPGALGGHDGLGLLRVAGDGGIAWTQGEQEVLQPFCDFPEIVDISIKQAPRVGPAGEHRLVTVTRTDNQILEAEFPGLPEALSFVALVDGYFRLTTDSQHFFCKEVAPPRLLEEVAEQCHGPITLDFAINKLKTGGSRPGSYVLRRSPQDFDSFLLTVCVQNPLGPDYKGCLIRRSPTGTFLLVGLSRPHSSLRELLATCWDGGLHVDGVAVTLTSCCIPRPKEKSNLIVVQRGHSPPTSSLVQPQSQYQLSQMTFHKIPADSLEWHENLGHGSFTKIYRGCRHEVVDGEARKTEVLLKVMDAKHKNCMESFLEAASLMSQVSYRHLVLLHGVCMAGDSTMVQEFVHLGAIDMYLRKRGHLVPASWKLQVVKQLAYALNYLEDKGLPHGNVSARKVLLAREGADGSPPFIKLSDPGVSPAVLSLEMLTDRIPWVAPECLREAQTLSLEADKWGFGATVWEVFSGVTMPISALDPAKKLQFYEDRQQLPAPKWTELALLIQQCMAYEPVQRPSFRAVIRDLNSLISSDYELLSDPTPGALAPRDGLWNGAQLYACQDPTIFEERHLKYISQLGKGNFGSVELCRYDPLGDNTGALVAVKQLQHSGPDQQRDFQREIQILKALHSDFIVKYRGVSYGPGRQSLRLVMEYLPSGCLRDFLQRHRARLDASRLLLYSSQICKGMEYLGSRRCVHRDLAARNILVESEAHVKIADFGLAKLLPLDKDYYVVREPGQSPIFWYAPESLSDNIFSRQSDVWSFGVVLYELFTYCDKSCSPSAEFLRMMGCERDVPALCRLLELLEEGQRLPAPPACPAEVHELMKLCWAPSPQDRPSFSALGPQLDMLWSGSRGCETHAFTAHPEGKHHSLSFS

Chain of Fibroblast growth factor receptor 1 (P11362 whole entry): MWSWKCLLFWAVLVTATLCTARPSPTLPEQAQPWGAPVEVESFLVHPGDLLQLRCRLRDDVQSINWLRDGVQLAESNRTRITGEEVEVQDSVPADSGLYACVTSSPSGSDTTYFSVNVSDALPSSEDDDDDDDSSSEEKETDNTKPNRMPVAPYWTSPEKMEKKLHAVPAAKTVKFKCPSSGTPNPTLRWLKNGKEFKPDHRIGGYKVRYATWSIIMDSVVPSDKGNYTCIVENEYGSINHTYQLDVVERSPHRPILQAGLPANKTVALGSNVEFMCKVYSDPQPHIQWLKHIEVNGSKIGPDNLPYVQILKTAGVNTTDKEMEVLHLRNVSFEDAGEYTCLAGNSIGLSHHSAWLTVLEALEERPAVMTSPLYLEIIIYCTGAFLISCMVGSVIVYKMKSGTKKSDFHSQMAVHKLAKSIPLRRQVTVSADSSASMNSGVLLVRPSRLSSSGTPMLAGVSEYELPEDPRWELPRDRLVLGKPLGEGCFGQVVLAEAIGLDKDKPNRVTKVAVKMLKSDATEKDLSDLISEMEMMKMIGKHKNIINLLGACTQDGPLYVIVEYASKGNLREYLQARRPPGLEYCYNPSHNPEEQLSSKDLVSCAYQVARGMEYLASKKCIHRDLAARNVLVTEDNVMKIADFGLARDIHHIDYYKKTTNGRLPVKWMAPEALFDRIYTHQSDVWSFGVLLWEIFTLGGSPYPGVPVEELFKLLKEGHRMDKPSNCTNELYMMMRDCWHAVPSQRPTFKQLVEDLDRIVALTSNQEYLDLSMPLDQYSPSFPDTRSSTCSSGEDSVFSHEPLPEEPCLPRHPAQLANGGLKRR

Row | SMILES | pIC50 [1] | pIC50 [2] | pIC50 [3] | Activity [4] | pIC50 [5]
1 | N#Cc1cnc(NC(=O)N2CCCc3ccc(C(=O)C(F)(F)F)nc32)cc1OC1CCCCC1 | < 5.00 | < 5.00 | < 5.00 |  | 
2 | CC(C)Oc1cc(NC(=O)N2CCCc3ccc(C=O)nc32)ncc1C#N | < 5.00 | < 5.00 | < 5.00 |  | 
3 | CCCCOc1cc(NC(=O)N2CCCc3ccc(C(=O)C(F)(F)F)nc32)ncc1C#N | < 5.00 | < 5.00 | < 5.00 |  | 
4 | N#Cc1cnc(NC(=O)N2CCCc3ccc(C(=O)C(F)(F)F)nc32)cc1OC1CCOC1 (stereo not given) | < 5.00 | < 5.00 | < 5.00 |  | 
5 | CCCOc1cc(NC(=O)N2CCCc3ccc(C(=O)C(F)(F)F)nc32)ncc1C#N | < 5.00 | < 5.00 | < 5.00 |  | 
6 | COCCOc1cc(NC(=O)N2CCCc3ccc(C(=O)C(F)(F)F)nc32)ncc1C#N | < 5.00 | < 5.00 | < 5.00 |  | 
7 | COCCNc1cc(NC(=O)N2CCCc3ccc(C(=O)C(F)(F)F)nc32)ncc1C#N | < 5.00 | < 5.00 | < 5.00 |  | 

Next, values leading:

Row | pIC50 [1] | pIC50 [2] | pIC50 [3] | Activity [4] | pIC50 [5] | SMILES
8 | < 5.00 | < 5.00 | < 5.00 |  |  | COc1cc(NC(=O)N2CCCc3ccc(C(=O)C(F)(F)F)nc32)ncc1C#N
9 | < 5.00 | < 5.00 | < 5.00 |  |  | CCOc1cc(NC(=O)N2CCCc3ccc(C(=O)C(F)(F)F)nc32)ncc1C#N
10 |  |  |  | 100% |  | Cc1ccc(C(=O)Nc2ccc(CN3CCN(C)CC3)c(C(F)(F)F)c2)cc1C#Cc1cnc2cccnn12
11 | < 5.00 | < 5.00 | < 5.00 |  |  | N#Cc1cnc(NC(=O)N2CCCc3ccc(C(=O)C(F)(F)F)nc32)cc1OC1CCCC1
12 | < 5.00 | < 5.00 | < 5.00 |  |  | CC(C)Oc1cc(NC(=O)N2CCCc3ccc(C(=O)C(F)(F)F)nc32)ncc1C#N
13 |  |  |  |  | 7.06 | O=C(c1ccc(-c2nc3cnc4[nH]ccc4c3n2C2CCCCC2)o1)C(F)(F)F
